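Protocol summary: plate cells (96-well), add compound at 5 concentrations, incubate 48 h, interpolate endpoints linearly. The concentration for 50% growth inhibition is given as GI50. TGI denotes the concentration required for complete inhibition of growth.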
Key:
Test in all cases: DTP human tumour cell line panel, 48 h
786-0 renal = test system: 786-0 renal
SK-MEL-28 melanoma = test system: SK-MEL-28 melanoma
SF-539 CNS = test system: SF-539 CNS
SR leukemia = test system: SR leukemia
OVCAR-8 ovarian = test system: OVCAR-8 ovarian
NCI-H226 lung = test system: NCI-H226 lung
UO-31 renal = test system: UO-31 renal
HCT-15 colon = test system: HCT-15 colon
HCT-116 colon = test system: HCT-116 colon
NCI-H522 lung = test system: NCI-H522 lung

Row | SMILES | GI50 (786-0 renal) | TGI (786-0 renal) | GI50 (SK-MEL-28 melanoma) | TGI (SK-MEL-28 melanoma) | GI50 (SF-539 CNS) | TGI (SF-539 CNS) | GI50 (SR leukemia) | TGI (SR leukemia) | GI50 (OVCAR-8 ovarian) | TGI (OVCAR-8 ovarian) | GI50 (NCI-H226 lung) | TGI (NCI-H226 lung) | GI50 (UO-31 renal) | TGI (UO-31 renal) | GI50 (HCT-15 colon) | TGI (HCT-15 colon) | GI50 (HCT-116 colon) | TGI (HCT-116 colon) | GI50 (NCI-H522 lung) | TGI (NCI-H522 lung)
1 | C/C(=C\c1ccc2ccccc2c1)[N+](=O)[O-] | 1.99 µM | 3.83 µM | 1.95 µM | 4.06 µM | 1.64 µM | 3.07 µM | 0.409 µM | 2.56 µM | 1.73 µM | 3.17 µM | 2.41 µM | 6.97 µM | 1.39 µM | 2.9 µM | 1.56 µM | 3.59 µM | 2.19 µM | 5.58 µM | 1.58 µM | 3 µM
2 | O=C(/C=C/c1ccccc1)CCN1CCOCC1 | – | 18.8 µM | – | 27.3 µM | – | 25 µM | – | 53.3 µM | – | 38.5 µM | – | 51.6 µM | – | 26.6 µM | – | 24.4 µM | – | 28 µM | – | 8.13 µM
3 | N#Cc1c(N2CCOCC2)nc(=S)[nH]c1-c1ccco1 | 6.2 µM | 80.8 µM | 8.45 µM | > 100 µM | 6.34 µM | 69.9 µM | 2.8 µM | 51.7 µM | 18.3 µM | > 100 µM | 3.94 µM | 63.5 µM | 2.67 µM | 72.3 µM | 6.2 µM | > 100 µM | 15.6 µM | > 100 µM | 3.95 µM | > 100 µM
4 | c1cnn2ncc(-c3ccnc(NCCCN4CCOCC4)n3)c2c1 | 8.63 µM | > 25 µM | 5.65 µM | > 18 µM | 6.18 µM | 18.7 µM | 5.21 µM | > 21.3 µM | 7.03 µM | > 25 µM | 3.79 µM | > 16.8 µM | 5.23 µM | 21 µM | 8.01 µM | > 25 µM | 7.25 µM | > 25 µM | 10.6 µM | > 25 µM
5 | COc1ccc(-c2cc(-c3ccc(C)cc3)nc3nc(=S)[nH]c(N)c23)cc1 | 22.4 µM | 52.6 µM | 40.6 µM | > 100 µM | 19.2 µM | 38.9 µM | 24.6 µM | 55.8 µM | 21.5 µM | 86.4 µM | 17.5 µM | 41.7 µM | 19.2 µM | 48 µM | 23.9 µM | 64.4 µM | 11.3 µM | 26.6 µM | 19.3 µM | 39 µM
6 | CC1=C2[C@@H](CC1)[C@]1(C)O[C@@](c3ccccc3)(C[C@H]1OC(=O)CO)[C@H]2OC(=O)/C=C/c1ccccc1 | 5.23 µM | 25.6 µM | 18.1 µM | 42.2 µM | 16.9 µM | 35.8 µM | 12 µM | 44.8 µM | 0.354 µM | 19.9 µM | 16.6 µM | 37.2 µM | 0.618 µM | 27.6 µM | 13.3 µM | 35.6 µM | 15.4 µM | 31.6 µM | 16.8 µM | 45.4 µM
7 | COc1ccccc1-c1cc(=O)c2cc(C)cnc2[nH]1 | 41.4 µM | > 100 µM | – | > 100 µM | – | > 100 µM | – | > 100 µM | – | > 100 µM | – | > 100 µM | – | > 100 µM | – | > 100 µM | 42.8 µM | > 100 µM | – | > 100 µM
8 | O=[N+]([O-])c1ccc(C=Cc2ccccc2)cc1.[C-]#[O+].[C-]#[O+].[C-]#[O+].[Cr] | 3.41 µM | > 100 µM | > 100 µM | > 100 µM | > 100 µM | > 100 µM | 2.49 µM | > 100 µM | 9.77 µM | > 100 µM | 27.8 µM | > 100 µM | 6.3 µM | > 100 µM | 43.4 µM | > 100 µM | 14.8 µM | > 100 µM | 3.85 µM | > 100 µM
9 | OCC1OC(n2cnc3c(N/N=C\c4ccccn4)ncnc32)C(O)C1O (stereo unspecified) | 0.256 µM | 1.01 µM | 0.995 µM | > 100 µM | 0.318 µM | 2.27 µM | 0.0387 µM | > 87.7 µM | 0.164 µM | 53.7 µM | 0.525 µM | > 100 µM | 0.235 µM | 1.44 µM | 0.129 µM | > 100 µM | 0.11 µM | 10.8 µM | 0.182 µM | > 100 µM
10 | CCOc1ccccc1C(=O)N1CCN(c2cc(Cl)cc(Cl)c2)CC1 | 0.0624 µM | 14.8 µM | 3.55 µM | 22.2 µM | 0.0252 µM | 0.412 µM | 0.0335 µM | 22 µM | 0.0371 µM | 14.2 µM | 0.839 µM | 6.55 µM | 0.0978 µM | 16 µM | 0.0322 µM | 10.9 µM | 0.0325 µM | 4.02 µM | 0.0142 µM | 0.358 µM
11 | O=C1/C(=C/c2ccccc2[N+](=O)[O-])Cc2ccccc21 | 2.57 µM | 6.9 µM | 2.1 µM | 4.2 µM | 2.15 µM | 5.94 µM | 0.495 µM | > 100 µM | 2.12 µM | 5.4 µM | 2.1 µM | 9.03 µM | 1.21 µM | 2.68 µM | 1.66 µM | 4.71 µM | 1.23 µM | 2.57 µM | 1.7 µM | 3.13 µM
12 | OCc1ccc(N2CCCC2c2ccccc2)cc1Cl (stereo unspecified) | 11.5 µM | 28.4 µM | 8.16 µM | 24.6 µM | 8.77 µM | 21.8 µM | 3.13 µM | 17.2 µM | 8.18 µM | 30.3 µM | 0.126 µM | 0.325 µM | 9.28 µM | 27.4 µM | 4.24 µM | 20 µM | 0.744 µM | 10.6 µM | 5.18 µM | 18.6 µM
13 | CN1CCN(C(=O)c2cc(-c3ccc4ncnc(N5CCc6cc(F)c(Cl)cc65)c4c3)cnc2N)CC1 | 0.22 µM | 1.73 µM | 0.24 µM | 3.61 µM | 0.264 µM | 1.44 µM | 0.137 µM | – | 0.29 µM | 24.1 µM | 0.309 µM | 2.76 µM | 0.0996 µM | 4.42 µM | 0.251 µM | 2.63 µM | 0.237 µM | 2.89 µM | 0.346 µM | 3.22 µM

Source: PubChem BioAssay (NCI)
